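1) Cells in 96-well plates. 2) Compound, 48 h, 5 concentrations. 3) Linear interpolation between surrounding doses. 4) Unreached endpoint = highest concentration. GI50: concentration for 50% inhibition of growth. TGI: total growth inhibition.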
Legend:
Assay in all cases: NCI-60 cell line screen, 48 h
COLO 205 colon = tested on: COLO 205 colon
HCT-116 colon = tested on: HCT-116 colon
KM12 colon = tested on: KM12 colon
HT29 colon = tested on: HT29 colon
SF-295 CNS = tested on: SF-295 CNS
RPMI-8226 leukemia = tested on: RPMI-8226 leukemia
SF-268 CNS = tested on: SF-268 CNS
CCRF-CEM leukemia = tested on: CCRF-CEM leukemia
CAKI-1 renal = tested on: CAKI-1 renal
NCI-H522 lung = tested on: NCI-H522 lung
UO-31 renal = tested on: UO-31 renal
HOP-62 NSCLC = tested on: HOP-62 NSCLC
SNB-75 CNS = tested on: SNB-75 CNS
MALME-3M melanoma = tested on: MALME-3M melanoma
OVCAR-8 ovarian = tested on: OVCAR-8 ovarian
MCF7 breast = tested on: MCF7 breast
OVCAR-4 ovarian = tested on: OVCAR-4 ovarian
MDA-MB-231 breast = tested on: MDA-MB-231 breast
SW-620 colon = tested on: SW-620 colon
K-562 leukemia = tested on: K-562 leukemia
SN12C renal = tested on: SN12C renal
HOP-92 NSCLC = tested on: HOP-92 NSCLC
M14 melanoma = tested on: M14 melanoma
LOX IMVI melanoma = tested on: LOX IMVI melanoma
SNB-19 CNS = tested on: SNB-19 CNS
OVCAR-5 ovarian = tested on: OVCAR-5 ovarian
786-0 renal = tested on: 786-0 renal
NCI-H460 lung = tested on: NCI-H460 lung
RXF 393 renal = tested on: RXF 393 renal
UACC-257 melanoma = tested on: UACC-257 melanoma
TK-10 renal = tested on: TK-10 renal
NCI-H226 lung = tested on: NCI-H226 lung
SR leukemia = tested on: SR leukemia
SK-MEL-2 melanoma = tested on: SK-MEL-2 melanoma
DU-145 prostate = tested on: DU-145 prostate
EKVX NSCLC = tested on: EKVX NSCLC
IGROV1 ovarian = tested on: IGROV1 ovarian
HS 578T breast = tested on: HS 578T breast
MOLT-4 leukemia = tested on: MOLT-4 leukemia
NCI-H23 lung = tested on: NCI-H23 lung
A549 NSCLC = tested on: A549 NSCLC
ACHN renal = tested on: ACHN renal
HCC-2998 colon = tested on: HCC-2998 colon
SK-MEL-28 melanoma = tested on: SK-MEL-28 melanoma
BT-549 breast = tested on: BT-549 breast
PC-3 prostate = tested on: PC-3 prostate
OVCAR-3 ovarian = tested on: OVCAR-3 ovarian
UACC-62 melanoma = tested on: UACC-62 melanoma
SF-539 CNS = tested on: SF-539 CNS
HL-60(TB) leukemia = tested on: HL-60(TB) leukemia
MDA-MB-435 = tested on: MDA-MB-435
U251 CNS = tested on: U251 CNS
HCT-15 colon = tested on: HCT-15 colon
SK-MEL-5 melanoma = tested on: SK-MEL-5 melanoma
T-47D breast = tested on: T-47D breast
A498 renal = tested on: A498 renal
NCI/ADR-RES ovarian = tested on: NCI/ADR-RES ovarian
SK-OV-3 ovarian = tested on: SK-OV-3 ovarian

CCCCCCCCOc1ccc(/C=N/Nc2cc(C)nc3ccc(Cl)cc23)cc1
GI50 (COLO 205 colon): 1820 nM
TGI (COLO 205 colon): 3.56 µM
GI50 (HCT-116 colon): 1830 nM
TGI (HCT-116 colon): 3.81 µM
GI50 (KM12 colon): 1850 nM
TGI (KM12 colon): 3.44 µM
GI50 (HT29 colon): 1810 nM
TGI (HT29 colon): 3.34 µM
GI50 (SF-295 CNS): 1830 nM
TGI (SF-295 CNS): 3.45 µM
GI50 (RPMI-8226 leukemia): 2010 nM
TGI (RPMI-8226 leukemia): 4.63 µM
GI50 (SF-268 CNS): 2210 nM
TGI (SF-268 CNS): 4.18 µM
GI50 (CCRF-CEM leukemia): 2040 nM
TGI (CCRF-CEM leukemia): 5.28 µM
GI50 (CAKI-1 renal): 1690 nM
TGI (CAKI-1 renal): 3.11 µM
GI50 (NCI-H522 lung): 1890 nM
TGI (NCI-H522 lung): 3.86 µM
GI50 (UO-31 renal): 1550 nM
TGI (UO-31 renal): 2930 nM
GI50 (HOP-62 NSCLC): 1480 nM
TGI (HOP-62 NSCLC): 3.09 µM
GI50 (SNB-75 CNS): 1860 nM
TGI (SNB-75 CNS): 3.49 µM
GI50 (MALME-3M melanoma): 1850 nM
TGI (MALME-3M melanoma): 3.36 µM
GI50 (OVCAR-8 ovarian): 2140 nM
TGI (OVCAR-8 ovarian): 4.84 µM
GI50 (MCF7 breast): 1940 nM
TGI (MCF7 breast): 3.91 µM
GI50 (OVCAR-4 ovarian): 1820 nM
TGI (OVCAR-4 ovarian): 3.55 µM
GI50 (MDA-MB-231 breast): 1810 nM
TGI (MDA-MB-231 breast): 3.47 µM
GI50 (SW-620 colon): 1890 nM
TGI (SW-620 colon): 3.63 µM
GI50 (K-562 leukemia): 1660 nM
TGI (K-562 leukemia): 4.24 µM
GI50 (SN12C renal): 1780 nM
TGI (SN12C renal): 3.35 µM
GI50 (HOP-92 NSCLC): 1510 nM
TGI (HOP-92 NSCLC): 3.02 µM
GI50 (M14 melanoma): 1750 nM
TGI (M14 melanoma): 3.51 µM
GI50 (LOX IMVI melanoma): 1660 nM
TGI (LOX IMVI melanoma): 3.17 µM
GI50 (SNB-19 CNS): 2000 nM
TGI (SNB-19 CNS): 3.83 µM
GI50 (OVCAR-5 ovarian): 1790 nM
TGI (OVCAR-5 ovarian): 3.2 µM
GI50 (786-0 renal): 1860 nM
TGI (786-0 renal): 3.66 µM
GI50 (NCI-H460 lung): 2010 nM
TGI (NCI-H460 lung): 3.87 µM
GI50 (RXF 393 renal): 1550 nM
TGI (RXF 393 renal): 2940 nM
GI50 (UACC-257 melanoma): 1750 nM
TGI (UACC-257 melanoma): 4.03 µM
GI50 (TK-10 renal): 1910 nM
TGI (TK-10 renal): 3.33 µM
GI50 (NCI-H226 lung): 1700 nM
TGI (NCI-H226 lung): 3.62 µM
GI50 (SR leukemia): 1610 nM
TGI (SR leukemia): 7.12 µM
GI50 (SK-MEL-2 melanoma): 1970 nM
TGI (SK-MEL-2 melanoma): 3.59 µM
GI50 (DU-145 prostate): 1760 nM
TGI (DU-145 prostate): 3.32 µM
GI50 (EKVX NSCLC): 1800 nM
TGI (EKVX NSCLC): 3.33 µM
GI50 (IGROV1 ovarian): 1840 nM
TGI (IGROV1 ovarian): 3.67 µM
GI50 (HS 578T breast): 2230 nM
TGI (HS 578T breast): 4.51 µM
GI50 (MOLT-4 leukemia): 2050 nM
TGI (MOLT-4 leukemia): 4.93 µM
GI50 (NCI-H23 lung): 1900 nM
TGI (NCI-H23 lung): 3.84 µM
GI50 (A549 NSCLC): 1700 nM
TGI (A549 NSCLC): 3.52 µM
GI50 (ACHN renal): 1740 nM
TGI (ACHN renal): 3.13 µM
GI50 (HCC-2998 colon): 2030 nM
TGI (HCC-2998 colon): 3.59 µM
GI50 (SK-MEL-28 melanoma): 1780 nM
TGI (SK-MEL-28 melanoma): 3.2 µM
GI50 (BT-549 breast): 14.2 µM
TGI (BT-549 breast): 31.4 µM
GI50 (PC-3 prostate): 1500 nM
TGI (PC-3 prostate): 3.04 µM
GI50 (OVCAR-3 ovarian): 2170 nM
TGI (OVCAR-3 ovarian): 3.82 µM
GI50 (UACC-62 melanoma): 1870 nM
TGI (UACC-62 melanoma): 3.49 µM
GI50 (SF-539 CNS): 1860 nM
TGI (SF-539 CNS): 3.29 µM
GI50 (HL-60(TB) leukemia): 2000 nM
TGI (HL-60(TB) leukemia): 4.46 µM
GI50 (MDA-MB-435): 1730 nM
TGI (MDA-MB-435): 3.16 µM
GI50 (U251 CNS): 1820 nM
TGI (U251 CNS): 3.39 µM
GI50 (HCT-15 colon): 1850 nM
TGI (HCT-15 colon): 3.38 µM
GI50 (SK-MEL-5 melanoma): 1730 nM
TGI (SK-MEL-5 melanoma): 3.16 µM
GI50 (T-47D breast): 1920 nM
TGI (T-47D breast): 4.09 µM
GI50 (A498 renal): 1980 nM
TGI (A498 renal): 3.45 µM
GI50 (NCI/ADR-RES ovarian): 1970 nM
TGI (NCI/ADR-RES ovarian): 4.07 µM
GI50 (SK-OV-3 ovarian): 1650 nM
TGI (SK-OV-3 ovarian): 3.1 µM

Source: PubChem BioAssay (NCI)
